For experiment [1], the system named is Th17 cells. Put plainly: Whole-transcriptome RNA sequencing of treated CD4+ T cells. In kind it is cell-based, mouse.
Protocol: Total RNA extractions for RNA-seq were performed using the mirVana kit (Applied Biosystems). RNA concentration was measured using the Qubit RNA broad range assay in the Qubit Flurometer (Invitrogen) and RNA integrity was determined with Eukaryote Total RNA Nano Series II ChIP on a 2100 Bioanalyzer (Agilent). RNA-seq libraries were prepared using TruSeq RNA sample preparation kit (Illumina). In brief, oligo-dT purified mRNA was fragmented and subjected to first and second strand cDNA synthesis. cDNA fragments were blunt ended, ligated to Illumina adaptors and PCR amplified to enrich for the fragments ligated to adaptors. The resulting cDNA libraries were verified and quantified on Agilent Bioanalyzer and single-end 96 cycle sequencing was conducted (Illumina).
Reads were aligned to the mm10 genome and the GRCm38 v87 transcriptome with STAR v2.5.2a using default parameters and output tracks normalized by RPM (–outWigNorm RPM). RSEM v1.3 was used to calculate gene counts and TPMs on the transcriptome-aligned reads as previously described[37]. Differential expression analysis was performed in R v3.5.2, using DESeq. 2 v1.22.2. […] Heatmaps were generated with the R package, heatmap. Integrative Genomics Viewer v2.4.19 was used for visualization of normalized bigwig tracks.
The test system of experiment [2] is experimental autoimmune encephalomyelitis (EAE). The experiment can be described thus: Passive EAE by adoptive transfer of treated 2D2 Th17 cells. In kind it is in vivo, mouse. The method, then:
We interrogated whether FGIN-1-27 can influence Th17 dependent pathology in vivo by using a mouse model of passive EAE in which Th17 cells are responsible for driving immuno-pathogenesis. To this end, we sorted naïve CD4^+ T cells (CD4^+Vβ11^+CD62L^hi) from spleen and lymph nodes of “2D2” T cell receptor (TCR) transgenic mice that specifically recognize myelin oligodendrocyte glycoprotein (MOG) peptide and activated them under Th17 polarizing conditions. The cultures were treated with DMSO or FGIN-1-27 during the Th17 differentiation process and cells were reactivated on day 5 for an additional 48 hours and equal numbers of 2D2 Th17 polarized cells treated either with DMSO or FGIN-1-27 were adoptively transferred to recipient mice.
(a) Immunophenotyping of 2D2 TCR transgenic CD4^+ T cells for intracellular IL-17 and IFNγ before adoptive transfer. Cultures were treated with DMSO or FGIN-1-27 during Th17 polarization process. (b) Mean clinical scores of mice following the adoptive transfer of 5 × 10^6 2D2 Th17 cells treated with DMSO or 5 × 10^6 2D2 Th17 cells treated with FGIN-1-27. […] The error bars represent SEM. (c) Mean clinical scores of T cell-deficient (Tcrb^−/−) mice following adoptive transfer of 5 × 10^6 2D2 Th17 cells treated with DMSO or 5 × 10^6 2D2 Th17 cells treated with FGIN-1-27. […] The error bars represent SEM. (d) Enumeration of total mononuclear or 2D2 CD4^+ T cells (CD4^+Vβ11^+) in spleens of mice receiving either DMSO or FGIN-1-27 treated 2D2 T cells. Cells were analyzed at the peak of EAE disease (day 15 post-transfer) by flow cytometry. The error bars represent SD. (e) Enumeration of total CNS mononuclear or CNS-infiltrating 2D2 CD4^+ T cells (CD4^+Vβ11^+) in mice receiving either DMSO or FGIN-1-27 treated 2D2 T cells. Cells were analyzed at the peak of EAE disease (day 15 post-transfer) by flow cytometry. The errors bars represent SD. (f) Intracellular cytokine staining of 2D2 CD4^+ T cells (day 15 post-transfer) for IL-17, IFNγ and GM-CSF from the CNS of mice that received either DMSO or FGIN-1-27 treated cells. The error bars represent SD.
Naïve CD4^+ T cells (CD4^+Vβ11^+CD62L^hi) were sorted from the spleens and lymph nodes of 2D2 TCR transgenic mice and polarized towards Th17 lineage in the presence of irradiated splenocytes (5:1 ratio) and 2.5 μg/ml anti-CD3 (145-2C11, BioXCell), 20 μg/ml anti-IL-4 (11B11, BioXCell), 20 μg/ml anti-IFNγ (XMG1.2, BioXCell), 30 ng/ml mIL-6 and 3 ng/ml hTGF-β1 (Miltenyi Biotec). The following day, cells were treated with either DMSO or FGIN-1-27 (10 μM) and IL-23 (10 ng/ml; R&D Systems) was added after 60 h of activation. On day 5 of culture, cells were reactivated on plates precoated with 2 μg/ml of anti-CD3 and anti-CD28 (PV1, BioXCell) for 48 h, and 5 million cells were adoptively transferred to recipient mice to induce passive-transfer EAE. Classical EAE symptoms were scored daily according to standard criteria: 0, asymptomatic; 1, flaccid tail; 2, hind-limb weakness and impaired righting ability; 3, hind-limb paralysis; 4, front- and hind-limb paralysis; 5, moribund or death.

Experiment [3] has as its system S6 ribosomal protein (Ser 235/236) and mTOR (Ser 2448). The experiment can be described thus: Phospho S6 and phospho mTOR staining. In kind it is cell-based, mouse. Particulars: 10, 5 and 2.5 µM. The method, then:
For phospho-S6 analyses, cells were cultured for 3 hours in Th17 polarization media on anti-CD3/CD28 coated plates. Cells were then fixed after fixation and permeabilization with a Transcription Factor Staining kit (eBioscience) and stained with anti-phospho-S6 antibody (S235/236, Cell Signaling) and anti-CD4. Dead cells were excluded using Live/Dead stain prior to fixation. For mTOR analyses, anti-phospho-mTOR antibody was used (Ser2448, eBioscience). page 6: […] blot analysis for phosphorylated eIF2α and ATF4 24 hours after treatment with DMSO or FGIN-1-27 (5 and 10 μM). (b) Intracellular phospho S6 ([…]/236) Th17 cells treated with DMSO or FGIN-1-27 […] The black line represents DMSO and the grey filled histogram represent FGIN-1-27 (10μM). The dotted lines (5μ M) and the dashed line represents staining after 2.5μM of FGIN-1-27 treatment. (c) Intracellular phospho mTOR ([…]) Th17 cells treated with DMSO or FGIN-1-27 […] The black line represents DMSO and the grey filled histogram represent FGIN-1-27 (10μM). The dotted lines (5μ M) and the dashed line represents staining after 2.5μM of FGIN-1-27 treatment.

For experiment [4], the system named is experimental autoimmune encephalomyelitis (EAE). Put plainly: Active EAE induced with MOG peptide 35-55. In kind it is in vivo, mouse. Particulars: 30 mg/kg intraperitoneal twice daily for 7 days.

`CCCCCCN(CCCCCC)C(=O)Cc1c(-c2ccc(F)cc2)[nH]c2ccccc12` [FGIN-1-27, N, N-di-n-hexyl 2-(4-fluorophenyl) indole-3-acetamide]: the “genes encoding glycolytic enzymes (hexokinase, phosphofructokinase, pyruvate kinase)” value in experiment [1] (24 hours) was “significantly down-regulated”. Besides, the differentially expressed genes in experiment [1] (vs DMSO, FDR < 0.05, 24 hours) is on record as 587. Also, in experiment [2] (T cell deficient (Tcrb−/−) recipient mice, p = 0.0067), the “onset and severity of EAE” value is “delayed onset and reduced severity of EAE”. Besides, in experiment [2] (day 15 post-transfer), the “2D2 CD4+ T cells recovered from the CNS” value was “fewer”; the “2D2 CD4+ T cells recovered from the spleens” value is “higher number”; the “IFNγ and GM-CSF production of CNS 2D2 CD4+ T cells” value is on record as “intact”; the “percentage and absolute numbers of IL-17 producing 2D2 CD4+ T cells from the CNS” value is “significant reduction”. Further, the “IL-17 producing 2D2 T cells before adoptive transfer” value in experiment [2] (pre-transfer, 10 μM during Th17 polarization) is recorded as “reduced percentage of IL-17 producing cells”. Moreover, the “disease symptoms (mean clinical scores)” value in experiment [2] (recipient mice, 5 × 10^6 treated 2D2 Th17 cells, p < 0.02) is reported as “much milder disease symptoms”. The “phosphorylation of S6 ribosomal protein (Ser 235/236) and mTOR (Ser 2448)” value in experiment [3] is given as “dose-dependent decrease”. Further, the “onset or severity of the symptoms” value in experiment [4] is “did not affect onset or severity”.

These data come from article PMC7048748, “Anxiolytic Drug FGIN-1-27 Ameliorates Autoimmunity by Metabolic Reprogramming of Pathogenic Th17 Cells” (Scientific Reports, 2020).
